Laboratory results as given in patent US6218365A, “Serine protease inhibitors” (Akzo Nobel N.V., priority 1996, dated 2001).

target: T1, Human thrombin (Homo sapiens, UniProt P00734); assay: Anti-thrombin assay (hydrolysis of chromogenic substrate S-2238 by thrombin); type: biochemical; conditions: final concentration causing 50% inhibition of the maximum absorbance of the blank; substrate S-2238, TNP buffer, 37° C.
T1 construct: purchased Centraal Laboratorium voor Bloedtransfusie, Amsterdam, The Netherlands
Method: Thrombin (Factor IIa) is a factor in the coagulation cascade. The anti-thrombin activity of compounds of the present invention was assessed by measring spectrophotometrically the rate of hydrolysis of the chromogenic substrate s-2238 exterted by thrombin. Ths assay for anti-thrombin activity in a buffer system was used to assess the IC50 -value of a test compound.
Test medium: Trometbine-NaCl-polyethylene glycol 6000 (TNP) buffer. Reference compomd: 12581 (Kabi) Vehicle: TNP buffer. Solubilisation can be assisted with dimethylsulphoxide, methanol, ethanol, acetonitrile or tert.-butyl alcohol which are without adverse effects in concentrations up to 2.5% in the final reaction mixture.
Reagents*: 1. Tromethamine-NaCl (TN) buffer. Composition of the buffer: Tromethaine (Tris) 6.057 g (50 mmol), NaCl 5.844 g (100 mmol), water to 1 l. The pH of the solution is adjusted to 7.4 at 37° C. with HCl (10 mmol·l^-1). 2. TNP buffer: Polyethylene glycol 6000 is dissolved in TN buffer to give a concentration of 3 g·l^-1 3. S-2238 solution: One vial S-2238 (25 mg; Kabi Diagnostica, Sweden) is dissolved in 20 ml TN buffer to give a concentration of 1.25 mg·ml^-1 (2 mmol l^-1). 4. Thrombin solution: Human thrombin (16 000 nKat·vial^-1; Centraal Laboratorium voor Bloedtransfusie, Amsterdam, The Netherlands) is dissolved in TNP buffer to give a stock solution of 835 nKat·ml^-1. Immediately before use this solution is diluted with TNP buffer to give a concentration of 3.34 nKat·ml^-1.
The test and reference compounds are dissolved in Milli-Q water to give stock concentrations of 10^-2 mol·l^31 1. Each concentration is stepwise diluted with the vehicle to give concentrations of 10^-3, 10^31 4 and 10^-5 mol·l^-1. The dilutions, including the stock solution, are used in the assay (fina concentrations in the reaction mixture: 3·10^-3; 10^31 3; […]; 3·10^-5; 10^-5; 3·10^-6 and 10^-6 mol·l^-1, respectively).
At room temperature 0.075 ml and 0.025 ml test compound or reference compound solutions or vehicle are alternately pipetted into the wells of a microtiter plate and these solutions are diluted with 0.115 ml and […] TNP buffer, respectively. An aliquot of 0.030 ml S-2238 solution is added to each well and the plate is preheated and pre-incubated with shaking in an incubator (Amersham) for 10 min. at 37° C. Following pre-incubation the hydrolysis of S-2238 is started by addition of 0.030 ml thrombin solution to each well. The plate is incubated (with shaking for 30 s) at 37° C. Starting after 1 min of incubation, the absorbance of each sample at 405 nm is measured every 2 min. for a period of 90 min. using a kinetic microtiter plate reader (Twinreader plus, Flow Laboratories).
All data are collected in an IBM personal computer using LOTUS-MEASURE. For each compound concentration (expressed in mol·l^-1 reaction mixture) and for the blank the absorbance is plotted versus the reaction time in min.
Evaluation of responses: For each final concentration the maximum absorbance was calculated from the assay plot. The IC50 -value (final concentration, expressed in μmol·l^-1, causing 50% inhibition of the maximum absorbance of the blank) was calculated using the logit transformation analysis according to Hafier et al. (Arzneim.-Forsch.ADrug Res. 1977; 27(II): 1871-3).

Row | Substance | IC50
1 | HOOC--CH2 --D--Coa--Pro--Ppa--(2-thiazolyl) [Example 53] | 2600 nM
2 | EthylSOx --D--Phe--Pr0--.PSI.[COCO]--NH2 [Example 38] | 1800 nM
3 | HOOC--CH2 --D--Phe--Pro--Ppa.PSI.[COCO]--OH [Example 3] | 540 nM
4 | 3,3-Diphenyipropionyl--Pro--Ppa.PSI.[COCO]--OH [Example 15] | 950 nM

Continued by falling IC50, values first:

Row | IC50 | Substance
5 | 2830 nM | HOOC--CH2 --p--Cl--D--Phe--Pro--Ppa--(2-thiazolyl) [Example 47]
6 | 245 nM | HOOC--CH2 --D--Cha--Pro--Ppa.PSI.[COCO]--NHMe [Example 31]
